In patent publication US4200575A, “7[(2-Thiazolyl)-2-(oxoimino)acetamido]cephalosporin derivatives” (Takeda Chemical Industries, Ltd., priority 1977, dated 1980):

Legend:
Assay in all cases: Minimal inhibitory concentration (M.I.C.), agar dilution method
Conditions in all cases: TSA, inoculum 10^7 /ml
S. aureus 1840 = type: cell-based, Staphylococcus aureus
From the text: (§1) (a) Determination of minimal inhibitory concentrations (Tables 1 to 8):
(§2) Procedure: agar dilution method

S. aureus 209P = type: cell-based, Staphylococcus aureus
From the text: as §1, §2

E. coli NIHJ JC-2 = type: cell-based, Escherichia coli
From the text: as §1, §2

E. coli T-7 = type: cell-based, Escherichia coli
From the text: as §1, §2

E. coli 0-111 = type: cell-based, Escherichia coli
From the text: The minimal inhibitory concentrations (M.I.C.) of some representative cephalosporin derivatives of this invention as produced by the procedures described in those examples and the minimal inhibitory concentrations of cephalothin [sodium 7-(2-thienylacetamido)-3-acetoxymethyl-3-cephem-4-carboxylate], cephaloridine [7-(2-thienylacetamido)-3-(1-pyridyl)methyl-3-cephem-4-carboxylic acid betaine] and cefazolin [sodium 7-(1H-tetrazol-1-yl)acetamido-3-(2-methyl-1,3,4-thiadiazol-5-yl)thiomethyl-3-cephem-4-carboxylate], which are among the clinically established and commercially available cephalosporins (as described, for example, in the New England Journal of Medicine 294, 24, 1976 and Journal of Pharmaceutical Science 64, 1899, 1975), both against various bacteria, as well as the therapeutic effects of some respresentative cephalosporin derivatives of this invention and of cephaloridine in infected mice, are shown in tables.
as §1, §2

K. pneumoniae DT = type: cell-based, Klebsiella pneumoniae
From the text: as §1, §2

K. pneumoniae GN 3835 = type: cell-based, Klebsiella pneumoniae
From the text: as §1, §2

S. marcescens IFO 12648 = type: cell-based, Serratia marcescens
From the text: as §1, §2

S. marcescens TN 24 = type: cell-based, Serratia marcescens
From the text: as §1, §2

P. vulgaris GN 4413 = type: cell-based, Proteus vulgaris
From the text: as §1, §2

P. vulgaris IFO 3988 = type: cell-based, Proteus vulgaris
From the text: as §1, §2

P. mirabilis GN 4359 = type: cell-based, Proteus mirabilis
From the text: as §1, §2

P. morganii IFO 3168 = type: cell-based, Proteus morganii
From the text: as §1, §2

P. rettgeri GN4733 = type: cell-based, Proteus rettgeri
From the text: as §1, §2

P. rettgeri TN 338 = type: cell-based, Proteus rettgeri
From the text: as §1, §2

E. cloacae TN 1282 = type: cell-based, Enterobacter cloacae
From the text: as §1, §2

C. freundii GN 1706 = type: cell-based, Citrobacter freundii
From the text: as §1, §2

C. freundii GN 99 = type: cell-based, Citrobacter freundii
From the text: as §1, §2

SMILES	minimal inhibitory concentration (M.I.C.) (S. aureus 1840)	minimal inhibitory concentration (M.I.C.) (S. aureus 209P)	minimal inhibitory concentration (M.I.C.) (E. coli NIHJ JC-2)	minimal inhibitory concentration (M.I.C.) (E. coli T-7)	minimal inhibitory concentration (M.I.C.) (E. coli 0-111)	minimal inhibitory concentration (M.I.C.) (K. pneumoniae DT)	minimal inhibitory concentration (M.I.C.) (K. pneumoniae GN 3835)	minimal inhibitory concentration (M.I.C.) (S. marcescens IFO 12648)	minimal inhibitory concentration (M.I.C.) (S. marcescens TN 24)	minimal inhibitory concentration (M.I.C.) (P. vulgaris GN 4413)	minimal inhibitory concentration (M.I.C.) (P. vulgaris IFO 3988)	minimal inhibitory concentration (M.I.C.) (P. mirabilis GN 4359)	minimal inhibitory concentration (M.I.C.) (P. morganii IFO 3168)	minimal inhibitory concentration (M.I.C.) (P. rettgeri GN4733)	minimal inhibitory concentration (M.I.C.) (P. rettgeri TN 338)	minimal inhibitory concentration (M.I.C.) (E. cloacae TN 1282)	minimal inhibitory concentration (M.I.C.) (C. freundii GN 1706)	minimal inhibitory concentration (M.I.C.) (C. freundii GN 99)
CNC(=O)O/N=C(\C(=O)NC1C(=O)N2C(C(=O)O)=C(CSc3nc(CC(=O)O)cs3)CSC12)c1csc(=N)[nH]1 (stereo not drawn) [Example IV - 7]	12.5	12.5	0.78	6.25	≤ 0.2	≤ 0.2	0.39	3.13	6.25	50	≤ 0.2	≤ 0.2	0.78	0.39	≤ 0.2	12.5	3.13	0.78
CNC(=O)O/N=C(\C(=O)NC1C(=O)N2C(C(=O)O)=C(CSc3nnc(C)s3)CSC12)c1csc(=N)[nH]1 (stereo not drawn) [Example II - 5, sodium 7-[2-(2-imino-4-thiazolin-4-yl)-2-methylcarbamoyloximinoacetamido]-3-(2-methyl-1,3,4-thiadiazol-5-yl)thiomethyl-3-cephem-4-carboxylate (syn-isomer)]	3.13	3.13	0.39	3.13	0.1	0.1	0.78	3.13	0.78	12.5	0.39	0.78	0.39	0.78	≤ 0.05	1.56	1.56	0.39
CC(C)NC(=O)O/N=C(\C(=O)NC1C(=O)N2C(C(=O)O)=C(CSc3nnnn3C)CSC12)c1csc(=N)[nH]1 (stereo not drawn) [Example II - 18]	3.13	1.56	0.2	3.13	0.024	0.1	1.56	3.13	3.13	25	0.1	0.39	0.78	0.2	≤ 0.012	3.13	0.78	0.39
CNC(=O)O/N=C(\C(=O)NC1C(=O)N2C(C(=O)O)=C(CSc3nc(C)ns3)CSC12)c1csc(=N)[nH]1 (stereo not drawn) [Example IV - 8]	1.56	0.78	1.56	6.25	0.39	0.39	3.13	6.25	6.25	6.25	0.39	0.78	3.13	0.78	≤ 0.2	6.25	3.13	0.78
CCNC(=O)O/N=C(\C(=O)NC1C(=O)N2C(C(=O)O)=C(C)CSC12)c1csc(=N)[nH]1 (stereo not drawn) [Example II - 11]	25	25	6.25	12.5	1.56	1.56	3.13	100	100	50	3.13	1.56	25	0.39	0.05	25	12.5	6.25
CCNC(=O)O/N=C(\C(=O)NC1C(=O)N2C(C(=O)O)=C(CSc3nnnn3C)CSC12)c1csc(=N)[nH]1 (stereo not drawn) [Example II - 9]	3.13	1.56	0.39	3.13	0.05	0.1	0.78	3.13	3.13	25	0.2	0.39	1.56	0.2	≤ 0.012	6.25	0.78	0.2
